We go through one substance from US20100286029A1, “USE OF A PEPTIDE AS A THERAPEUTIC AGENT” (priority 2007, published 2010).

One assay relates to spleen cells. Put plainly: Th1/Th2 cytokine profiling assay (Ovalbumin-restimulated spleen cells, CBA kit). In kind it is cell-based, Balb/c mice. As to conditions: 10 micrograms per ml; Ovalbumin restimulation, 72 hours.
A further assay relates to Human A549 cells. Briefly: Apoptosis prevention assay (C2 ceramide, Annexin-5). In kind it is cell-based. As to conditions: 10 micrograms per ml, 30 min pretreatment.
Another assay concerns human macrophages. Put plainly: TNF alpha production assay (LPS-stimulated macrophages, ELISA). Conditions: 10 micrograms per ml, 30 min preincubation; LPS 200 ng/ml, overnight. In kind it is cell-based.
In assay [1] the test system is Human Peripheral Blood Mononuclear Cells (PBMC). Briefly: T cell proliferation assay (PHA, 3H-thymidine). As to conditions: 10 micrograms per ml, 3H-thymidine incorporation. A general note: Incorporation of labelled thymidine or its analogues reports DNA synthesis.
Protocol: Human Peripheral Blood Mononuclear Cells (PBMC) were obtained from normal human donors. The T cell proliferation was induced by stimulation of the cells with the T cell mitogen phytohemagglutinin (PHA), either in the absence (positive proliferation control), or in the presence of test peptides—10 micrograms per ml—to examine their effects on the T cell proliferating response. 10^5/well PBMC were plated in 96-well microtiter plates and assayed in duplicate with the peptides. […] At the end of incubation time, the plates were harvested and the cells counted by liquid scintillation for the incorporation of ^3H-thymidine as a measure of T cell proliferation.
Assay [2] shares this test system. Briefly: B cell proliferation assay (SAC plus Interleukin-2, 3H-thymidine). The assay is classed as cell-based. As to conditions: 10 micrograms per ml.
Protocol: Human Peripheral Blood Mononuclear Cells (PBMC) were obtained from normal human donors. The B cell proliferation was induced by stimulation of the cells with the B cell mitogen Staphylococcus aureus Cowans I (SAC) plus Interleukin-2, either in the absence (positive proliferation control), or in the presence of test peptides—10 micrograms per ml—to examine their effects on the B cell response. 10^5/well PBMC were plated in 96-well microtiter plates and assayed in duplicate with the peptides. […] At the end of incubation time, the plates were harvested and the cells counted by liquid scintillation for the incorporation of ^3H-thymidine as a measure of B cell proliferation.
The test system of assay [3] is hepatitis B virus (HBV) ayw strain. Put plainly: HBV experimental assay system, secreted HBV DNA by TaqMan PCR in HepG2-2.2.15. The assay is classed as cell-based. Conditions: 10 micrograms per ml; HepG2-2.2.15 cells, six days.
Protocol: HepG2-2.2.15 is a stable cell line containing the hepatitis B virus (HBV) ayw strain genome (ATCC Cat. No. CRL-11997). Antiviral compounds blocking any late step of viral replication such as transcription, translation, pregenome encapsidation, reverse transcription, particle assembly and release can be identified and characterized using this cell line.
HepG2-2.2.15 cells were plated in 96-well microtiter plates. After 16-24 hours the confluent monolayer of HepG2-2.2.15 cells was washed and the medium was replaced with complete medium containing test peptides-10 micrograms per ml—in duplicate. […] Three days later the culture medium was replaced with fresh medium containing the peptides. Six days following the initial administration of the peptides, the cell culture supernatants was collected, treated with pronase and DNAse and then used in a real-time quantitative TaqMan PCR assay. The PCR-amplified HBV DNA was detected in real-time by monitoring increases in fluorescence signals that result from the exonucleolytic degradation of a quenched fluorescence probe molecule that hybridizes to the mplified HBV DNA. For each PCR amplification, a standard curve was simultaneously generated using dilutions of purified HBV DNA.
Antiviral activity was calculated from the reduction in HBV DNA levels (% virus control). […]

No end group written: not given here.

Protocol for Human A549 cells: Human A549 cells (carcinomic human alveolar basal epithelial cells) were utilized in the experiments employing the Annexin-5 apoptosis assay. […] A549 cells were pretreated for 30 min with test peptides—10 micrograms per ml—followed by the exposure to C2 ceramide.
Protocol for human macrophages: Human Peripheral Blood Mononuclear Cells (PBMC) were obtained from normal human donors. The macrophages were prepared by adherence of PBMC to the plastic wells of the plates. […] Not stimulated macrophages served as negative background control. After overnight incubation, supernatants from the control and LPS-stimulated cultures were harvested and assayed for TNF alpha production employing a TNF alpha specific ELISA.

Take “Tyr-Pro-Phe-Val-Glu-Pro-Ile-OH (YPFVEPI-OH) [Peptide 1]”: in the assay with spleen cells, the “IFNγ spleen cells; TH1 response (% of control)” value is on record as 218.6 % of control, the “IL-2 spleen cells (% of control)” value is reported as 96.9 % of control, the “IL-4 spleen cells; TH2 response (% of control)” value was 142.1 % of control and the “IL-5 spleen cells; TH2 response (% of control)” value is 81.6 % of control. For the same substance, in the assay with spleen cells, the “TNF-a spleen cells; TH1 response (% of control)” value was 143.7 % of control. The “prevention (reduction) of ceramide-induced apoptosis on human lung cells” value in the assay on Human A549 cells turned out to be 37.3%. Moreover, the “induction of the LPS-induced TNF-alpha production in human macrophages” value in the assay with human macrophages was found to be 18.4%. In addition, the “% of PHA induced Control (T cell proliferation)” value in assay [1] is 98.8%. The “induction of the proliferation of specifically stimulated human B-cells” value in assay [2] is “did not induce”. Besides, in assay [3], the “inhibition of HBV replication as compared to the virus control infection” value is 23.8%.
